ChEMBL document CHEMBL1132706 (J Med Chem, 1999)

Experiments:
[1] = tested on: CEM-SS; assay: Compound was evaluated for the cytoprotection by XTT cytoprotection assay through the NCI AIDS Screen; type: functional, cell-based; settings: Homo sapiens
[2] = Compound was evaluated for the relative inhibition of Viral infection in MAGI cells at concentration 0.1 mM, using assay 3; type: functional, Homo sapiens
[3] = Compound was evaluated for the relative inhibition of Viral infection in MAGI cells at concentration 100 mM, using assay 1; type: functional, Homo sapiens
[4] = Compound was evaluated for the relative inhibition of Viral infection in MAGI cells at concentration 10 mM, using assay 1; type: functional, Homo sapiens
[5] = Compound was evaluated for the relative inhibition of Viral infection in MAGI cells at concentration 10mM, using assay 2; type: functional, Homo sapiens
[6] = Compound was evaluated for the relative inhibition of Viral infection in MAGI cells at concentration 10 mM, using assay 3; type: functional, Homo sapiens
[7] = Compound was evaluated for the relative inhibition of Viral infection in MAGI cells at concentration 1 mM, using assay 1; type: functional, Homo sapiens
[8] = tested on: MT4; assay: Concentration of compound required to protect 50% of MT-4 cells against retroviral cytopathic effects by HIV-1 ([…]); type: functional, cell-based; settings: Homo sapiens
[9] = tested on: MT4; assay: Concentration of compound required to protect 50% of MT-4 cells against retroviral cytopathic effects by HIV-2 (ROD); type: functional, cell-based; settings: Homo sapiens
[10] = tested on: MT4; assay: Concentration of compound required to reduce MT-4 cell viability by 50%; type: functional, cell-based; settings: Homo sapiens
[11] = tested on: CEM-SS; assay: Compound was evaluated for the cytoprotection of CEM-SS cells by XTT cytoprotection assay through the NCI AIDS Screen; type: functional, cell-based; settings: Homo sapiens
[12] = biological target: T1, Human immunodeficiency virus type 1 integrase (Human immunodeficiency virus 1, UniProt Q7ZJM1)
T1 sequence (Q7ZJM1 whole entry): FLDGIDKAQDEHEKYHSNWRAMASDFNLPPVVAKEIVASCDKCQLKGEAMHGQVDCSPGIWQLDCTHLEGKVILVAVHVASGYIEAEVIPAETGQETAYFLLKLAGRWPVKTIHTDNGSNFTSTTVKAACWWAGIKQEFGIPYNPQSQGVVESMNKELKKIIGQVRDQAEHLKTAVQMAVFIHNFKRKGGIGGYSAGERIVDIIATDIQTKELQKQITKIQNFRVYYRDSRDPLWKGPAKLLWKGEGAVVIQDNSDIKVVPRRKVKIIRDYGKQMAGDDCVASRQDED
Description: Inhibition of HIV-1 integrase by radiolabeled oligonucleotide-based assay integration

[13] = biological target: T1, Human immunodeficiency virus type 1 integrase; remark: listed apart in the source
Description: Compound was evaluated for the inhibitory concentration against HIV-1 integrase by radiolabeled oligonucleotide-based assay 3''-processing

[14] = Compound was evaluated for the relative Viral infection in MAGI cells at concentration 100 mM, using assay 2
[15] = tested on: CEM-SS; assay: Compound was evaluated for the cytoprotection of CEM-SS cells by XTT cytoprotection assay through the NCI AIDS Screen (EC50); type: functional, cell-based; settings: Homo sapiens
[16] = tested on: CEM-SS; assay: Compound was evaluated for the cytoprotection of CEM-SS cells by XTT cytoprotection assay through the NCI AIDS Screen (IC50); type: functional, cell-based; settings: Homo sapiens
[17] = tested on: CEM-SS; assay: Compound was evaluated for the effect of Order of Addition on Cytoprotection against HIV-1RF at dilution 100, Pretreat only (100 uM); type: functional, Homo sapiens
[18] = tested on: CEM-SS; assay: Compound was evaluated for the effect of Order of Addition on Cytoprotection against HIV-1RF at dilution 1000, Pretreat only (100 uM); type: functional, Homo sapiens
[19] = tested on: CEM-SS; assay: Compound was evaluated for the effect of Order of Addition on Cytoprotection against HIV-1RF at dilution 333, Pretreat only (100 uM); type: functional, Homo sapiens

IC50 [12] [µM]	IC50 [13] [µM]	Structure (SMILES)	EC50 [1] [µM]	relative infection [2] [%]	relative infection [3] [%]	relative infection [4] [%]	relative infection [5] [%]	relative infection [6] [%]	relative infection [7] [%]	EC50 [8] [µM]	EC50 [9] [µM]	IC50 [10] [µM]	IC50 [11] [µM]	relative infection [14] [%]	EC50 [15] [µM]	IC50 [16] [µM]	Control [17] [%]	Control [18] [%]	Control [19] [%]
6.2	9.8	CC(=O)Oc1ccc(/C=C/C(=O)O[C@@H](C(=O)O)[C@@H](OC(=O)/C=C/c2ccc(OC(C)=O)c(OC(C)=O)c2)C(=O)O)cc1OC(C)=O	16	85	4	73	50	42	48	4.1	10.1	47.1	50	2					
100	> 333	CC(=O)Oc1ccc(/C=C/C(=O)NCCOC(=O)/C=C/c2ccc(OC(C)=O)c(OC(C)=O)c2)cc1OC(C)=O													> 15.6	15.6			
		NS(=O)(=O)c1ccc(NC(=O)c2ccccc2SSc2ccccc2C(=O)Nc2ccc(S(N)(=O)=O)cc2)cc1															31	6	4
